Assay [1] deals with T1, adrenergic receptor alpha2C (Homo sapiens, UniProt P18825).
T1 construct: expressed in transfected cells; host or cells: recombinant human cells (so in the source)
T1 sequence (P18825 1-462): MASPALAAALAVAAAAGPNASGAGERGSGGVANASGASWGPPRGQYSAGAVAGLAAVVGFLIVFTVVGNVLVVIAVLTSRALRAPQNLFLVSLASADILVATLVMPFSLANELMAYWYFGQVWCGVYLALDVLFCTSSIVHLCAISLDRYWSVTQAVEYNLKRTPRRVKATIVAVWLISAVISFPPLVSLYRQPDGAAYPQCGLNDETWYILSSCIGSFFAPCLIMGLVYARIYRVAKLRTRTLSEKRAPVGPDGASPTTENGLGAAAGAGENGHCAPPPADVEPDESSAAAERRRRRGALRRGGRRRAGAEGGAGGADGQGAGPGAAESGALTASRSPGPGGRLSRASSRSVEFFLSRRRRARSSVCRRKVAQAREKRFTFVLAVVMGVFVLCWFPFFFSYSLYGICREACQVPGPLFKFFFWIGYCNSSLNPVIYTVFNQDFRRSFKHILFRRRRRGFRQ
Kind of assay: Inhibition constants (Ki) for adrenergic receptor alpha2C in recombinant cells. Type of assay: binding. Conditions: read-out: pKi α2C (converted). As to the method:
(§1) Compounds of formula 1 have been evaluated in vitro as ligands for dopaminergic and noradrenergic receptors and modulators of the activity of these receptors according to the invention in recombinant human cells expressing the receptors. The inhibition constants (Ki) were measured for dopaminergic receptors D2 and D3, and for adrenergic receptors alpha2A, alpha2B and alpha2C, according to the described methods (Newman-Tancredi A, Assie M B, Martel J C, Cosi C, Slot L B, Palmier C, Rauly-Lestienne I, Colpaert F, Vacher B, Cussac D. F15063, a potential antipsychotic with D2/D3 antagonist, 5-HT 1A agonist and D4 partial agonist properties. I. In vitro receptor affinity and efficacy profile. Br J Pharmacol., 2007, 151:237-252). The intrinsic activity of the products for the D2 receptor was measured (Bruins Slot L A, De Vries L, Newman-Tancredi A, Cussac D. Differential profile of antipsychotics at serotonin 5-HT1A and dopamine D2S receptors coupled to extracellular signal-regulated kinase. Eur J Pharmacol, 2006, 534; 63-70. The results obtained for some of these compounds are presented in the following table.

Assay [2] concerns the target T2, adrenergic receptor alpha2A (Homo sapiens, UniProt P08913).
T2 construct: expressed in transfected cells; host or cells: recombinant human cells (so in the source)
T2 sequence (P08913 1-465): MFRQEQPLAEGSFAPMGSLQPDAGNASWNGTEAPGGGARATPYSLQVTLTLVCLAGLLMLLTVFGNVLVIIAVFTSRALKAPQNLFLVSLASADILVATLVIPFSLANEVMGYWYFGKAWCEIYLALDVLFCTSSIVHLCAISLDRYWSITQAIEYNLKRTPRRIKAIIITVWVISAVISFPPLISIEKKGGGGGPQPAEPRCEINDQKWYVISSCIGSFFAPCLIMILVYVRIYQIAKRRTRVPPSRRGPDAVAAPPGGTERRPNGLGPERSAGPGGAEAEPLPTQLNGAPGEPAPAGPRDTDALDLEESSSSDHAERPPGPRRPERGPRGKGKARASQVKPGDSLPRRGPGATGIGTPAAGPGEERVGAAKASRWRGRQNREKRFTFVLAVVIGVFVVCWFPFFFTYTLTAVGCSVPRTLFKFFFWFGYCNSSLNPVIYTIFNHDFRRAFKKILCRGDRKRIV
Nature of the assay: Inhibition constants (Ki) for adrenergic receptor alpha2A in recombinant cells. Type of assay: binding. The conditions noted are these: read-out: pKi α2A (converted). As to the method:
as §1

Assay [3] has as its target T3, adrenergic receptor alpha2B (Homo sapiens, UniProt P18089).
T3 construct: expressed in transfected cells; host or cells: recombinant human cells (so in the source)
T3 sequence (P18089 1-450): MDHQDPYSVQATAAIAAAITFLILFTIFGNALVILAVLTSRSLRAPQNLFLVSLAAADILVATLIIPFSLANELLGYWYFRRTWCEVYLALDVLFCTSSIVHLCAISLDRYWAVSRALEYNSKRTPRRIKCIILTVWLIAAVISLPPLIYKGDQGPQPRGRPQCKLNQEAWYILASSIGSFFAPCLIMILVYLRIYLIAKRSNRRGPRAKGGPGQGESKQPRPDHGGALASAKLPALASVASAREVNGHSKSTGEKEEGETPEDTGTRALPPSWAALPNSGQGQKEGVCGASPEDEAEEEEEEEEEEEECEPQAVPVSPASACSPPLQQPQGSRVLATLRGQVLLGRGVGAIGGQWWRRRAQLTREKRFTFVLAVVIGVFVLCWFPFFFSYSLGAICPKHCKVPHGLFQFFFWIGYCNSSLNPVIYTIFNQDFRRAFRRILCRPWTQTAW
Nature of the assay: Inhibition constants (Ki) for adrenergic receptor alpha2B in recombinant cells. It counts as binding. Conditions: read-out: pKi α2B (converted). As to the method: as §1

Assay [4] concerns MK-801-induced hyperactivity. Kind of assay: MK-801-induced hyperactivity test in mice. Type of assay: in vivo. Conditions: Mus musculus.
For assay [5], the target named is T4, dopaminergic receptor D3 (Homo sapiens, UniProt P35462).
T4 construct: expressed in transfected cells; host or cells: recombinant human cells (so in the source)
Nature of the assay: Inhibition constants (Ki) for dopaminergic receptor D3 in recombinant cells. Conditions: read-out: pKi D3 (converted). It counts as binding. On the procedure:
as §1

In assay [6] the target is T5, D2 receptor (Homo sapiens, UniProt P14416).
T5 construct: expressed in transfected cells; host or cells: recombinant human cells (so in the source)
Nature of the assay: Intrinsic (agonist) activity at the D2 receptor. It counts as cell-based. On the procedure: The prior art mentions, for benzodioxane-piperidine derivatives bearing an amide, a urea or an imidazolidinone, as non-selective alpha2-antagonists (WO 97/28157, WO 98/02435); some of these products also have a weak affinity for the D2 dopaminergic receptor (T. Imbert, J. Med. Chem, 2000, 43: 3653-3664). […] Activity as a D2 and D3 receptor agonist was determined according to the described methods (Bruins Slot L A, De Vries L, Newman-Tancredi A, Cussac D. Differential profile of antipsychotics at serotonin 5-HT1A and dopamine D2S receptors coupled to extracellular signal-regulated kinase. Eur J Pharmacol, 2006, 534; 63-70; Bruins Slot L A, Palmier C, Tardif S, Cussac D. Action of novel antipsychotics at human dopamine D3 receptors coupled to G protein and ERK1/2 activation. Neuropharmacology, 2007, 53: 232-241) for the following compounds, such as described in WO 97/28157 and WO 98/02435; • 1-benzyl-3-(2-(1-((2,3-dihydrobenzo[b][1,4]dioxin-2-yl)methyl)piperidin-4-yl)ethyl)imidazolidin-2-one • 1-(2-(1-((2,3-dihydrobenzo[b][1,4]dioxin-2-yl)methyl)piperidin-4-yl)ethyl)-3-methylimidazolidin-2-one • 1-(2,6-dichlorophenyl)-3-(2-(1-((2,3-dihydrobenzo[b][1,4]dioxin-2-yl)methyl)piperidin-4-yl)ethyl)imidazolidin-2-one • 1-(2-(1-((2,3-dihydrobenzo[b][1,4]dioxin-2-yl)methyl)piperidin-4-yl)ethyl)-3-(pyridin-4-yl)imidazolidin-2-one • 3-(2-(1-((2,3-dihydrobenzo[b][1,4]dioxin-2-yl)methyl)piperidin-4-yl)ethyl)-1-phenylimidazolidine-2,4-dione • (S)—N-(2-(1-((2,3-dihydrobenzo[b][1,4]dioxin-2-yl)methyl)piperidin-4-yl)ethyl)-[1,1′-biphenyl]-4-carboxamide • (S)—N-(2-(1-((2,3-dihydrobenzo[b][1,4]dioxin-2-yl)methyl)piperidin-4-yl)ethyl)-4-(1H-pyrrol-1-yl)benzamide • (S)—N-(2-(1-((2,3-dihydrobenzo[b][1,4]dioxin-2-yl)methyl)piperidin-4-yl)ethyl)-4-(pyridin-4-yl)benzamide • (S)—N-(2-(1-((2,3-dihydrobenzo[b][1,4]dioxin-2-yl)methyl)piperidin-4-yl)ethyl)-4-(pyridin-3-yl)benzamide • (S)—N-(2-(1-((2,3-dihydrobenzo[b][1,4]dioxin-2-yl)methyl)piperidin-4-yl)ethyl)-9-oxo-9H-fluorene-1-carboxamide.
as §1

Assay [7] concerns the target T6, dopaminergic receptor D2 (Homo sapiens, UniProt P14416).
T6 construct: expressed in transfected cells; host or cells: recombinant human cells (so in the source)
Nature of the assay: Inhibition constants (Ki) for dopaminergic receptor D2 in recombinant cells. Type of assay: binding. Conditions: read-out: pKi D2 (converted). On the procedure: as §1

Assay [8] concerns scopolamine-induced amnesia. Nature of the assay: Passive avoidance memory test (scopolamine-induced amnesia) in rats. Type of assay: in vivo. Conditions: for Latency to enter the dark compartment: scopolamine, measured 48 h after training, carrier 24±12. On the procedure: Example 31 was evaluated in rats in a memory test, the passive avoidance test (Chopin P, Briley M. Effects of four non-cholinergic cognitive enhancers in comparison with tacrine and galanthamine on scopolamine-induced amnesia in rats, Psychopharmacology (Berl), 1992; 106:26-30). This test consists of teaching a rat not to enter a dark compartment (its naturally preferred place) where it had previously received an electric shock (0.8 mA). The animal's reticence (the time lapse or “latency” to enter the dark compartment) measured 48 h after its training is considered as an index of its explicit-declarative memory. Latency greatly […] when an amnesic product such as scopolamine is administered shortly after receiving the first shock. A product with promnesic properties opposes the effects of scopolamine.

T6 sequence (P14416 whole entry): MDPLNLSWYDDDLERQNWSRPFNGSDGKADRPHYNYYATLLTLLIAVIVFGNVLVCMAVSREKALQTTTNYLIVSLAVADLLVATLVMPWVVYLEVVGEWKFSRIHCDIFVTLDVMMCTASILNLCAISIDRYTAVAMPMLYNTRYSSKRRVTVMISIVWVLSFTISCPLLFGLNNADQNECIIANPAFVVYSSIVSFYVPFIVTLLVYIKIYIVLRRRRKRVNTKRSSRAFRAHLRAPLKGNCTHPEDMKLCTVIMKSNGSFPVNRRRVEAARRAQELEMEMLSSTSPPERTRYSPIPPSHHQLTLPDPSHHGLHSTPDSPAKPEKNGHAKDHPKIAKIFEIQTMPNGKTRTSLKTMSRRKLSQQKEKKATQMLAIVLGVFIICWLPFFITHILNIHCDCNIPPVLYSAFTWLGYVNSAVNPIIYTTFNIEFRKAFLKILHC
T4 sequence (P35462 whole entry): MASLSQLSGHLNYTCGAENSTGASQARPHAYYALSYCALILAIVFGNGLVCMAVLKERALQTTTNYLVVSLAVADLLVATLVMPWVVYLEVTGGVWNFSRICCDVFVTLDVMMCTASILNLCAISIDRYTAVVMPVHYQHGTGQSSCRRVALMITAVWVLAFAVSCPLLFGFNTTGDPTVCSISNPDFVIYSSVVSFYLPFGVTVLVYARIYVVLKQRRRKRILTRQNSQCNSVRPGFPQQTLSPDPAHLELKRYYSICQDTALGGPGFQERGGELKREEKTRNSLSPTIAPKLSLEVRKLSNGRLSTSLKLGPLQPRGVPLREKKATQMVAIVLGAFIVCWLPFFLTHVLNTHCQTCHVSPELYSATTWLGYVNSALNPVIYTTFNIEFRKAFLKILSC
T5 sequence (P14416 1-414 isoform P14416-2): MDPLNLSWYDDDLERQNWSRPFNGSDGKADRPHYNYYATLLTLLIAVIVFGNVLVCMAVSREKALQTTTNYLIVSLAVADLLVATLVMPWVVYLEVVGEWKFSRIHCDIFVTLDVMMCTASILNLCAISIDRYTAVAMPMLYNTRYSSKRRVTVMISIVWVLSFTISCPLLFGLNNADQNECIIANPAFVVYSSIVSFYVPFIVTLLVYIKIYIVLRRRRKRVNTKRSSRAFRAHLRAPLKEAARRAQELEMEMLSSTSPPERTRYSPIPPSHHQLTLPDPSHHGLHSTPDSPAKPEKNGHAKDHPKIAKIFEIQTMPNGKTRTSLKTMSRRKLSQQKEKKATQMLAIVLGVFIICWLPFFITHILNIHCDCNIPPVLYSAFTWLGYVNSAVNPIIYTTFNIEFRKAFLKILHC

Take `Cc1ccc2c(c1)O[C@@H](CN1CCC(CCN3C(=O)OC[C@@H]3Cc3ccccc3)CC1)CO2` [Example 31, (S)-4-benzyl-3-(2-(1-(((S)-7-methyl-2,3-dihydrobenzo[b][1,4]dioxin-2-yl)methyl)piperidin-4-yl)ethyl)oxazolidin-2-one]: the Ki was 1 nM in assay [1]; 5.13 nM in assay [2]; 2.95 nM in assay [3]; 0.525 nM in assay [5]; 1.17 nM in assay [7]. The ED50 (usually the dose at which the effect has come halfway, by size or by number of responders) in assay [4] came to 2.1 mg/kg. For the same compound, the “I.A.: Intrinsic activity on receptor D2 in vitro” value (“I.A.: Intrinsic activity” for short) in assay [6] is on record as 0 percentage of that of dopamine. Also, the “Effect on scopolamine-induced amnesia in the passive avoidance test” value in assay [8] (doses of 0.16, 0.63, 2.5 and 10 mg/kg) is listed as “opposed to the effect of scopolamine”.

In the case of `O=C1OCCN1CCC1CCN(C[C@H]2COc3ccccc3O2)CC1` [Example 1, (S)-3-(2-(1-((2,3-dihydrobenzo[b][1,4]dioxin-2-yl)methyl)piperidin-4-yl)ethyl)oxazolidin-2-one], the “Latency to enter the dark compartment” value in assay [8] (dose 0.63 mg/kg) is 60 ± 21 s; in assay [8] (dose 2.5 mg/kg), 78 ± 22 s.

Consider `O=C1OCCN1CCC1CCN(C[C@H]2COc3ccc(F)cc3O2)CC1` [Example 7, (S)-3-(2-(1-((7-fluoro-2,3-dihydrobenzo[b][1,4]dioxin-2-yl)methyl)piperidin-4-yl)ethyl)oxazolidin-2-one], for which the Ki is 0.851 nM in assay [1]; 8.71 nM in assay [2]; 1.95 nM in assay [3]; 6.46 nM in assay [5]; 14.5 nM in assay [7]. Also, in assay [4], the ED50 is 0.15 mg/kg. Also, the “I.A.: Intrinsic activity” value in assay [6] was 36 percentage of that of dopamine.

As to `O=C1COCCN1CCC1CCN(C[C@H]2COc3c(F)cc(F)cc3O2)CC1` [Example 91, (S)-4-(2-(1-((5,7-difluoro-2,3-dihydrobenzo[b][1,4]dioxin-2-yl)methyl)piperidin-4-yl)ethyl)morpholin-3-one], the Ki in assay [1] is 0.437 nM; in assay [2], 4.9 nM; in assay [3], 1.55 nM; in assay [5], 3.31 nM; in assay [7], 15.1 nM. In addition, the ED50 in assay [4] was 0.7 mg/kg. Also, the “I.A.: Intrinsic activity” value in assay [6] is on record as 24 percentage of that of dopamine.

With `O=C1OC[C@@H](COc2ccccc2)N1CCC1CCN(C[C@H]2COc3ccc(Br)cc3O2)CC1` [Example 69, (R)-3-(2-(1-(((S)-7-bromo-2,3-dihydrobenzo[b][1,4]dioxin-2-yl)methyl)piperidin-4-yl)ethyl)-4-(phenoxymethyl)oxazolidin-2-one], the Ki is 8.71 nM in assay [1]; 200 nM in assay [2]; 186 nM in assay [3]; 0.417 nM in assay [5]; 0.24 nM in assay [7]. For the same compound, the median effective dose (ED50) in assay [4] turned out to be 0.6 mg/kg. Moreover, in assay [6], the “I.A.: Intrinsic activity” value was 13 percentage of that of dopamine.

Values taken from patent US20150336943A1, “NOVEL BENZODIOXANE-PIPERIDINE DERIVATIVES AND THEIR THERAPEUTIC APPLICATIONS FOR TREATING NEUROPSYCHIATRIC DISORDERS” (PIERRE FABRE MEDICAMENT, priority 2013, published 2015).
